Each structure is given as a SMILES string.

Experiment [1] relates to U937 cells. Nature of the experiment: Cell cycle analysis by 7-AAD staining. Type of experiment: cell-based, human. The settings on record: 24 hours. As to the method: (§1) To evaluate the effects of BKT300-N1 on cell cycle distribution 7-Aminoactinomycin D (7-AAD) protocol was used. Cells were seeded in 24 wells of microplates at a density of 1×10^6 Cells/well and exposed to different concentrations of the tested compound, BKT300-N1 or BKT300-3-C5, for 24 or 48 hours at 37° C. in a CO2 incubator. After incubation time, cells were collected and washed with cold PBS. Cells were fixed for 20 minutes at 4° C. and processed according to the 7-AAD labeling protocol. The intensity of dye in staining cells was measured by flow cytometry. Cell cycle analysis calculated G0/G1, G2/M and sub-G0 phases from a 7-AAD area histogram.
Using the above protocol, U937 cells were treated with different concentrations of BKT300-N1 or BKT300-3-C5 (0.05, 0.1, 0.5 and 1 μM) for 24 hours and then cell cycle phases were analyzed by flow cytometry using 7-AAD.

The next experiment has as its system HEY-T30 cells. Nature of the experiment: Cell cycle analysis by 7-AAD, Taxol-resistant ovarian cancer cells. Type of experiment: cell-based. Particulars: 24 hours. Here is the method:
Cells (1×10^6 cells/ml) were cultured in 12-well plates in 10% FCS. After 24 hours the medium was replaced by 1% FCS and BKT300-N1 or Taxol (250-3.75 nM) were added.
24 hours incubation, cells were harvested and washed with PBS. The pellet was fixed by adding 200 μl Fix/Perm buffer and vortexed. The fixed cells were incubated for 20 minutes at 4° C. and then 1 ml of Perm/Wash buffer was added. Following centrifugation, supernatant was removed and cells were resuspended in 100 μl Perm/Wash plus 4 μl of 7-AAD and vortexed. The cells were then incubated in the dark for 20 minutes at 4° C. and thereafter 300 μl of PBS was added. Flow cytometry analysis was performed by collecting 20,000 events per sample. Analysis was done according to the distribution of cells in three major phases of the cycle: G0/G1 (blue), S (purple), G2/M (green), and apoptotic cells (red), as shown in FIGS. 15-18C.
All results are expressed as average ±SD. Statistical differences were determined by an analysis of two-tailed Student's t test. Values of p<0.05 were considered to be statistically significant.
Cells were incubated in different doses of Taxol (30, 15, 7.5, 3.75 nM) for 24 hours and were thereafter analyzed as described hereinabove.
Next, the effect of BKT300-N1 on the taxol resistance cells was tested. Both ovarian cancer cell lines were incubated with BKT300-N1 (250, 125, 62.5, 31.25, 15.6 nM). For comparison, the effect of the same amounts of Taxol was also tested.

The test system of experiment [2] is human colorectal (CTG-0923) cancer. Nature of the experiment: Patient derived xenograft (PDX) tumor growth, colorectal. The class given is in vivo, mice. The settings on record: SC every 12 hours, 5 mg or 10 mg daily dose; compared to vehicle control; FIG. 13C. Here is the method:
(§2) In additional experiments, the in vivo efficacy of BKT300-N1, on the growth of subcutaneous, low passage Champions' TumourGraft® patient derived xenograft (PDX) models of human non-small-cell lung (CTG-0198), colorectal (CTG-0923) and ovarian (CTG-1086) cancer in female immunocompromised mice was tested.
(§3) Athymic Nude-Foxn1nu (Immunocompromised) female mice aged 6-8 weeks were implanted with 1-1.5 cm^3 harvested tumors unilaterally on the left flank. When the tumors reached an average volume of 200 cubic millimeters, control group was treated daily with a vehicle and treatment group was treated with either 2.5 mg per mice per injection (low dose) or 5 mg per mice per injection (hight dose) of BKT300-N1. The control group was subcutaneously (SC) injected with the vehicle (Cremophore EL and Ethanol 50%/50% volume/volume) diluted 1:6 with 0.9% Sodium Chloride.
(§4) For the low dose treatment group, a stock solution of 30 mg/mL BKN300-N1 was preapared in the vehicle and further diluted 1:6 with 0.9% Sodium Chloride, to a final concentration of 5 mg/mL. Animals received a 0.5 mL subcutaneously (SC) injection every 12 hours (for a 2.5 mg/injection=5 mg daily dose).
(§5) For the high dose treatment group, a stock solution of 30 mg/mL BKN300-N1 was preapared in the vehicle and further diluted 1:3 with 0.9% Sodium Chloride, to a final concentration of 10 mg/mL. […]
In general terms: Xenograft models place foreign cells or tissue in a host animal.

Experiment [3] concerns human non-small-cell lung (CTG-0198) cancer. Nature of the experiment: Patient derived xenograft (PDX) tumor growth, lung. Particulars: SC every 12 hours, 5 mg or 10 mg daily dose; compared to vehicle control; FIG. 13B. The class given is in vivo, mice. Here is the method: as §2, §3, §4, §5
Experiment [4] has as its system cleaved caspase-3 in U937 cells. The experiment in a line: Western blot for cleaved caspase-3. Particulars: 0.1, 0.5 and 1 μM; 24 hours; FIGS. 7A-7B. Type of experiment: cell-based, human. As to the method:
The role of caspase-3 (CASP3) in the BKT300-N1-induced apoptosis of AML cell lines U937 was tested. Cells were incubated with BKT300-N1 (0.1, 0.5 and 1 μM) for 24 hours, and were then tested for the presence of cleaved caspase 3 using mAb against human cleaved caspase 3 by Western blot assay.

The next experiment concerns HCC SNU449 cells. The experiment in a line: Scratch assay (IncuCyte), cell invasion and migration. Type of experiment: cell-based, human. As to the method: Scratch assay was performed to assess the effects of BKT300-N1 compared to that of BKT300-3-C5 on cell invasion and migration. This system measures scratch closure in real time and automatically calculates the relative wound density and wound width within the initially-vacant area at each time point. The relative wound density is the ratio of the occupied area to the total area of the initial scratched region.
Cells were plated on 96-well Image-lock plates (Essen Bioscience) and grown overnight to form a spatially uniform monolayer.
Scratches were made by using a 96-pin tool WoundMaker™ (Essen BioScience) to create uniform, reproducible scratches in all the wells of a 96-well plate. After creating the scratch, the medium was aspirated and the wells are washed twice with fresh medium to remove any cells from the scratched area. Following the washes, fresh medium containing different concentrations of the tested compound was added to the wells. Once the fresh medium is added, the plate was placed into the IncuCyte ZOOM™ apparatus and images of the collective cell spreading are recorded every 4 hours for a total duration of 60 hours.
Data processing and analysis were done using the IncuCyte S3 Live-cells Analysis System.
The scratch assay was performed using HCC SNU449 cells. The cells were scratched and incubated with 0.05, 0.1, 0.5, 1 and 10 μM of BKT300-N1 or BKT300-3-C5.

Experiment [5] deals with human ovarian (CTG-1086) cancer. Nature of the experiment: Patient derived xenograft (PDX) tumor growth, ovarian. Type of experiment: in vivo, mice. The settings on record: SC every 12 hours, 5 mg or 10 mg daily dose; compared to vehicle control; FIG. 13A. Here is the method: as §2, §3, §4, §5
A further experiment deals with SDF-1 (Homo sapiens, UniProt P48061). The experiment in a line: Transwell migration assay of Jurkat cells towards SDF-1. The class given is cell-based. The settings on record: 0.5 μM, 1 μM, or 5 μM; 100 ng/ml SDF-1; 3 hours; FIG. 2. Here is the method:
600 μl of RPMI medium containing 1% fetal calf serum (FCS) was added to the lower chambers of Transwell® transmigration plates, supplemented with 100 ng/ml of SDF-1. BKT300-N1 was added to the lower chambers at the indicated concentration, except in control samples. The SDF-1 was incubated with BKT300-N1 for 30 minutes at room temperature before the initiation of the migration assay. Following 30 minutes of incubation 2×10^5 Jurkat cells were added to the upper chambers of the transmigration plates in a total volume of 100 μl. Cells which migrated within 3 hours to the bottom chamber of the Transwell® plates were counted using a FACScalibur™ flow cytometer.

Experiment [6] concerns U937 cells. The experiment in a line: Annexin-V/PI apoptosis assay by flow cytometry. The class given is cell-based, human. The settings on record: 25-1000 nM, 24 hours, compared to BKT300-3-C5. As to the method: Apoptosis was determined by flow cytometry analysis using Annexin-V kit. U937 cancer cells were incubated in RPMI cell medium with 1% fetal calf serum (FCS) at a concentration of 1×10^6 cells/well at a final volume of 1 ml in 24-well plate. The tested compound (BKT300-N1 or BKT300-3-C5) was added to the cells at the indicated concentrations. After 24 hours incubation, medium and cells were collected and centrifuged, then stained with Annexin-V and propidium iodide (PI) kit according to manufacturer's instructions. The numbers of viable cells (Annexin-V negative/PI negative); early apoptotic cells (Annexin-V positive/PI negative); late apoptosis cells (Annexin-V positive/PI positive) and necrotic cells (Annexin-V negative/PI positive) were then evaluated by flow cytometry (FACS).
A general note: Flow cytometry measures light scatter and fluorescence of single cells or particles in a stream.

In another experiment the test system is H69 cells. Nature of the experiment: Cell cycle analysis by 7-AAD staining. Type of experiment: cell-based. The settings on record: different concentrations; 48 hours; FIG. 9. Here is the method: as §1
Using the above protocol, H69 cells were treated with different concentrations of BKT300-N1 for 48 hours and then cell cycle phases were analyzed by flow cytometry using 7-AAD. Cells were gated according to the cells cycle phase: P1 for G0/G1 phase; P2-apoptotic cells in subG0 phase; and P3 for G2/M phase.

A further experiment concerns cancer cells. Particulars: described in WO 2017/103931; cited from earlier work.
The subject of a further experiment is OVCAR8 cells. The experiment in a line: Cell cycle analysis by 7-AAD, Taxol-sensitive ovarian cancer cells. Particulars: lowest taxol concentration of 3.75 nM; 24 hours; FIG. 16. The class given is cell-based.
The subject of the next experiment is CXCR4. Particulars: animal studies, cited from earlier work.
The mark [7] stands for this setting: all tested concentrations (0.05, 0.1, 0.5 and 1 μM), FIG. 8A.

Chain of SDF-1 (P48061 22-93, species assumed): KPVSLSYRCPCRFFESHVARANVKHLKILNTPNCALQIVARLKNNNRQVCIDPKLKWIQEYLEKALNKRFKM
Procedure for OVCAR8 cells: Cells (1×10^6 cells/ml) were cultured in 12-well plates in 10% FCS. […] 24 hours incubation, cells were harvested and washed with PBS. The pellet was fixed by adding 200 μl Fix/Perm buffer and vortexed. The fixed cells were incubated for 20 minutes at 4° C. and then 1 ml of Perm/Wash buffer was added. Following centrifugation, supernatant was removed and cells were resuspended in 100 μl Perm/Wash plus 4 μl of 7-AAD and vortexed. The cells were then incubated in the dark for 20 minutes at 4° C. and thereafter 300 μl of PBS was added. Flow cytometry analysis was performed by collecting 20,000 events per sample. […] All results are expressed as average ±SD. Statistical differences were determined by an analysis of two-tailed Student's t test. Values of p<0.05 were considered to be statistically significant. Cells were incubated in different doses of Taxol (30, 15, 7.5, 3.75 nM) for 24 hours and were thereafter analyzed as described hereinabove.

Consider `CCCCCC1C(=O)Nc2c(Oc3ccc(OC)cc3OC)cc(OC)cc2C1=O` (stereo not shown) [BKT300-3-C5, reference compound], for which the cells death entry with U937 cells [1] (concentration lower than 0.5 μM, FIG. 8B) is “did not induce cells death”.

Turning to `CCCCCc1c(O)c2cc(OC)cc(Oc3ccc(O)cc3OC)c2[nH]c1=O` [BKT300-N1, 4-hydroxy-8-(4-hydroxy-2-methoxyphenoxy)-6-methoxy-3-pentylquinolin-2(1H)-one], in the experiment with U937 cells [1] (setting [7]), the cell cycle arrest entry is reported as “resulted in cell cycle arrest” and the cells death entry is “induced cells death”. For the same molecule, the “level of dead cells” value in the experiment on HEY-T30 cells (significant at a concentration of 62.5 nM, FIG. 18A) is “increasing the level of dead cells”. For the same molecule, the “percentage of cells at G0/G1 phase” value in the experiment on HEY-T30 cells (significant at concentration of 125 nM, FIG. 18B) was “reducing the percentage of cells at G0/G1 phase”. The “level of cells in G2/M phase” value in the experiment with HEY-T30 cells (significant at concentration of 125 nM, FIG. 18C) is “increasing the level of cells in G2/M phase”. The tumor growth result in experiment [2] was “substantial reduction and even arrest in tumor growth”. In addition, the tumor growth result in experiment [3] was “substantial reduction and even arrest in tumor growth”. Moreover, the “presence of cleaved caspase-3 (mechanism of induced apoptosis)” value in [4] was “via caspase-3 activation”. Moreover, the wound width values entry in the experiment with HCC SNU449 cells (0.05, 0.1, 0.5, 1 and 10 μM, over BKT300-3-C5, particularly at the lower concentrations, FIGS. 4A-4E) was “improved effect”. The relative wound area result with HCC SNU449 cells (at 24 hours, already at 0.1 μM, compared to BKT300-3-C5, FIG. 3) is “improved effect”. Besides, the tumor growth result in experiment [5] was “substantial reduction and even arrest in tumor growth”. On SDF-1, the “migration of lymphocytic Jurkat cells towards SDF-1” value was “significantly inhibited”. Moreover, in the experiment on U937 cells [6] (all tested concentrations, FIG. 6A), the “viability of U937 cells as the number of Annexin-V−/PI− viable cells” value is listed as “improved effect”. In the experiment with U937 cells [6] (FIGS. 6A-6B), the “reduction in the percentage of viable cells via apoptosis” value is given as “substantially higher effect”. In the experiment on H69 cells, the apoptotic cell death entry is on record as “induce apoptotic cell death” and the “cell cycle growth arrest” value is given as “arrest the growth at the G2M phase”.

With `CCCCCc1cc2cc(O)cc(Oc3c(O)cc(O)cc3CCCCC)c2c(=O)o1` [BKT300], in the experiment with cancer cells, the cancer cell death entry is “inducing cancer cell death” and the cancer cell migration entry was “inhibiting cancer cell migration”.

On to `CC(=O)O[C@H]1C(=O)[C@@]2(C)[C@H]([C@H](OC(=O)c3ccccc3)[C@]3(O)C[C@H](OC(=O)[C@H](O)[C@@H](NC(=O)c4ccccc4)c4ccccc4)C(C)=C1C3(C)C)[C@]1(OC(C)=O)CO[C@@H]1C[C@@H]2O` [Taxol, reference compound], for which the “effect on cell cycle” value in the experiment with OVCAR8 cells is “effect on cell cycle was already evident”; in the experiment on HEY-T30 cells (Taxol 30, 15, 7.5, 3.75 nM, FIG. 15) it was “no effect on cell cycle”. Further, in the experiment on HEY-T30 cells (any of the tested concentrations (250, 125, 62.5, 31.25, 15.6 nM), FIGS. 18A-18C), the “effects on dead cells, G0/G1 phase and G2/M phase” value is on record as “no significant effects”.

As to `c1cc(CN2CCCNCCNCCCNCC2)ccc1CN1CCCNCCNCCCNCC1` [plerixafor], the “recurrence of glioblastoma associated with vasculogenesis” value in the experiment with CXCR4 (Kioi et al. 2010) was “reduce recurrence of glioblastoma”. In addition, the metastasis result in the experiment with CXCR4 (Smith et al. 2004) was “reduce metastasis”. In addition, the opioid-induced hyperalgesia result with CXCR4 (Wilson et al. 2011) was “counteract opioid-induced hyperalgesia”.
